Legend:
[1] = test system: ATP-binding cassette transporter A1 (ABCA-1) protein expression; test: ABCA-1 protein expression in human monocyte-derived macrophages (Western blotting); format: cell-based; conditions: 0, 0.2, 0.4, 0.6, 0.8, or 1.0 nM during 7-day culture
Experimental: Monocyte-derived macrophages that had been cultured for 7 days were washed with PBS 3 times, followed by solubilization with the addition of 10% SDS (sodium dodecyl sulfate) (100 μL) to each dish. Each cell extraction solution was scooped up with a cell scraper, followed by pulverization with the use of a 1-mL TERUMO syringe and a 23-G injection needle for fragmentation (shearing). The resultant was centrifuged at 15,000 rpm for 3 minutes (Himac CF15D2 high-speed micro refrigerated centrifuge; Hitach, Ltd.). The supernatant protein concentration was assayed by the bicinchoninic acid (BCA) method (Pierce) and used as a cell extraction solution for Western blotting.
For ABCA-1 protein detection, a reaction with an anti-human ABCA-1 antibody was carried out on a transfer membrane at room temperature for 1 hour. For a primary antibody (anti-human ABCA-1 rabbit polyclonal antibody (Funakoshi Corporation)), a stock solution (5 μL) was diluted 1,000-fold with PBS-0.1% Tween 20 (5 mL), and the diluent was used. The transfer membrane was washed with PBS-0.1% Tween 20. Then, a reaction with a secondary antibody (anti-rabbit IgG antibody: anti-rabbit IgG donkey antibody conjugated with horseradish peroxidase (HRP) (GE Healthcare Bio-Science)) was carried out at room temperature for 1 hour. […]

ACAT1 = ACAT1 expression by macrophages of treated apoE-deficient mice (Western blotting); format: in vivo; conditions: four weeks, P<0.05
Experimental: 13-week-old male apoE-deficient mice (72 mice) were divided into the following 6 groups: (i) physiological salt saline (control); (ii) salusin-α (0.6 nmol/kg/h); (iii) salusin-β (0.6 nmol/kg/h); (iv) salusin-α (0.6 nmol/kg/h)+anti-salusin-α serum (1.4 μg/kg/h); (v) salusin-β (0.6 nmol/kg/h)+anti-salusin-β serum (1.4 μg/kg/h); and (vi) anti-salusin-β serum (1.4 μg/kg/h). The mice were subjected to continuous subcutaneous administration with the use of an osmotic mini-pump for 4 to 8 weeks. The osmotic mini-pump and the solution contained therein were changed every week.
Macrophages were collected as in the experiment in (1), and the protein expression of the gene involved in foaming of macrophages (i.e., scavenger receptors CD36 and SR-A capable of recognizing oxidized LDL, intracellular cholesterol esterification enzyme ACAT1, and ABCA1, ABCG1, and SR-BI, which are involved in cholesterol efflux) was analyzed by Western blotting. For the internal standard of the macrophage function, β-actin expression was also examined. For quantification of the band concentration, Analyzer (ATTO Corporation, Tokyo) was used.

Substance | ABCA-1 protein expression [1] | ACAT1 protein expression relative to initial level (ACAT1; salusin-α 0.6 nmol/kg/h) | ACAT1 protein expression relative to control level (ACAT1; 0.6 nmol/kg/h, range given jointly for CD36, SR-A, ACAT1) [times]
salusin-α: peptide (SEQ ID NO: 1) comprising 28 amino acid residues, generated by processing from preprosalusin (SGALPPAPAAPRPALRAQRAGPAGPGAK; listed as Homo sapiens) | no significant changes | approximately half | 
salusin-β: peptide (SEQ ID NO: 3) comprising 20 amino acid residues, generated by processing from preprosalusin (AIFIFIRWLLKLGHHGRAPP; listed as Homo sapiens) [reference compound] | no significant changes |  | 1.5 to 2.8
